From US11078202B2, “β-lactamase inhibitor and use thereof” (priority 2018, dated 2021)
Counter-ions that a name gives are not always drawn.

Key:
Format in all cases: cell-based
[1] = system: Klebsiella pneumoniae XNWB 0001; assay: MIC assay of test compounds combined with ceftazidime (8 μg/mL); conditions: ceftazidime 8 μg/mL fixed
Experimental: (§1) The bacterial strains used for the minimum inhibitory concentration (MIC) test were frozen in a −80° C. ULT freezer and thawed 2 days before use. A small amount of frozen bacterial strains were scraped using a sterile inoculating loop, streaked onto a TSA solid culture dish for inoculation, and then cultured for 20-24 h at 35±2° C. in a normal atmospheric environment. 5-10 colonies with similar morphology were picked from the culture dish using a sterile inoculating loop and then re-streaked onto a suitable solid culture dish. Then the dish was placed into a normal incubator for culture for 20-24 h at 35±2° C. 5-10 single bacterial colonies were picked from the solid culture dish, resuspended in 500 μL of 0.9% NaCl, and adjusted to an OD600 of 0.1-0.15 with a spectrophotometer. The bacteria were then diluted 300-fold with 1.1×CAMHB. […] Dilution of test compounds: […] 2 μL of each compound in the dilution master plate of the test compounds was transferred to the corresponding well of the assay plates. In the mean time, 2 μL of 100% DMSO was transferred to the compound-free wells (GC and SC wells). (1) 8 μL of imipenem in the additive plate of imipenem was transferred to the corresponding wells of the assay plates; (2) 8 μL of ceftazidime in the additive plate of ceftazidime was transferred to the corresponding wells of the assay plates; (3) 8 μL of ampicillin in the additive plate of ampicillin was transferred to the corresponding wells of the assay plates. 90 μL of corresponding bacterial inocula were added to wells (except for SC wells) of the assay plates. After addition, the 6 assay plates were covered by sterile covers. The mixtures in the assay plates were centrifuged by a centrifuge at 1000 rpm for 30 s, and mixed uniformly by oscillating with a microplate oscillator at 800 rpm for 1 min, and then cultured in a common incubator for 16-20 h at 35±2° C. The minimum inhibitory concentration of each compound was recorded by reference to guidelines from the Clinical and Laboratory Standards Institute. […] The effect of the test compounds in combination with imipenem, ceftazidime, and ampicillin was also tested. […] The bacterial inocula in the assay plates were resuscitated from TSA and diluted in CAMHB, while growth controls (GC wells) and sterile controls (SC wells) were set up in the assay plates. The minimum inhibitory concentration of each compound combination against different bacteria was observed and recorded after the assay plates were incubated in a common incubator at 35±2° C. for 16-20 h, and the results are shown in Tables 1-3.

[2] = system: Klebsiella pneumoniae XNWB 0004; assay: as above; conditions: ceftazidime 8 μg/mL fixed
Experimental: as §1

[3] = system: Klebsiella pneumoniae XNWB 0006; assay: as above; conditions: ceftazidime 8 μg/mL fixed
Experimental: as §1

[4] = system: Klebsiella pneumoniae XNWB 0003; assay: as above; conditions: ceftazidime 8 μg/mL fixed
Experimental: as §1

[5] = system: Klebsiella pneumoniae XNWB 0005; assay: as above; conditions: ceftazidime 8 μg/mL fixed
Experimental: as §1

[6] = system: Pseudomonas aeruginosa XNWB 0008; assay: as above; conditions: ceftazidime 8 μg/mL fixed
Experimental: as §1

[7] = system: Klebsiella pneumoniae XNWB 0002; assay: as above; conditions: ceftazidime 8 μg/mL fixed
Experimental: as §1

[8] = system: Acinetobacter baumannii XNWB 0007; assay: as above; conditions: ceftazidime 8 μg/mL fixed
Experimental: as §1

[9] = system: Klebsiella pneumoniae XNWB 0001; assay: MIC assay of test compounds combined with imipenem (4 μg/mL); conditions: imipenem 4 μg/mL fixed
Experimental: as §1

[10] = system: Klebsiella pneumoniae XNWB 0004; assay: as above; conditions: imipenem 4 μg/mL fixed
Experimental: as §1

[11] = system: Klebsiella pneumoniae XNWB 0006; assay: as above; conditions: imipenem 4 μg/mL fixed
Experimental: as §1

[12] = system: Klebsiella pneumoniae XNWB 0003; assay: as above; conditions: imipenem 4 μg/mL fixed
Experimental: as §1

[13] = system: Klebsiella pneumoniae XNWB 0005; assay: as above; conditions: imipenem 4 μg/mL fixed
Experimental: as §1

[14] = system: Pseudomonas aeruginosa XNWB 0008; assay: as above; conditions: imipenem 4 μg/mL fixed
Experimental: as §1

[15] = system: Klebsiella pneumoniae XNWB 0002; assay: as above; conditions: imipenem 4 μg/mL fixed
Experimental: as §1

[16] = system: Acinetobacter baumannii XNWB 0007; assay: as above; conditions: imipenem 4 μg/mL fixed
Experimental: as §1

N[C@H]1C[C@@H](c2cc([C@@H]3CC4(CC4)[C@@H]4CN3C(=O)N4OS(=O)(=O)O)no2)C1 [Example 26, (1R,4S)-4-(5-((1R,3R)-3-aminocyclobutyl)isoxazol-3-yl)-6-oxo-5,7-diazaspiro[bicycle [3.2.1]octane-2,1′-cyclopropan]-7-yl sulfate]
C (C: 16-128 μg/mL): The minimum concentration of test compounds combined with ceftazidime (8 μg/mL) for bacteriostasis [8] | The minimum concentration of test compounds combined with imipenem (4 μg/mL) for bacteriostasis [16]
B (B: 8-16 μg/mL): The minimum concentration of test compounds combined with ceftazidime (8 μg/mL) for bacteriostasis [6]
A (A: <8 μg/mL): The minimum concentration of test compounds combined with ceftazidime (8 μg/mL) for bacteriostasis [1] | The minimum concentration of test compounds combined with ceftazidime (8 μg/mL) for bacteriostasis [2] | The minimum concentration of test compounds combined with ceftazidime (8 μg/mL) for bacteriostasis [3] | The minimum concentration of test compounds combined with ceftazidime (8 μg/mL) for bacteriostasis [4] | The minimum concentration of test compounds combined with ceftazidime (8 μg/mL) for bacteriostasis [5] | The minimum concentration of test compounds combined with ceftazidime (8 μg/mL) for bacteriostasis [7] | The minimum concentration of test compounds combined with imipenem (4 μg/mL) for bacteriostasis [9] | The minimum concentration of test compounds combined with imipenem (4 μg/mL) for bacteriostasis [10] | The minimum concentration of test compounds combined with imipenem (4 μg/mL) for bacteriostasis [11] | The minimum concentration of test compounds combined with imipenem (4 μg/mL) for bacteriostasis [12] | The minimum concentration of test compounds combined with imipenem (4 μg/mL) for bacteriostasis [13] | The minimum concentration of test compounds combined with imipenem (4 μg/mL) for bacteriostasis [14] | The minimum concentration of test compounds combined with imipenem (4 μg/mL) for bacteriostasis [15]

N=C(N)NCCc1cc([C@@H]2CC3(CC3)[C@@H]3CN2C(=O)N3OS(=O)(=O)O)no1 [Example 36, (1R,4S)-4-(5-(2-guanidinoethyl)isoxazol-3-yl)-6-oxo-5,7-diazaspiro[bicyclo[3.2.1]octane-2,1′-cyclopropan]-7-yl sulfate]
B (B: 8-16 μg/mL): The minimum concentration of test compounds combined with ceftazidime (8 μg/mL) for bacteriostasis [2] | The minimum concentration of test compounds combined with ceftazidime (8 μg/mL) for bacteriostasis [6]
A (A: <8 μg/mL): The minimum concentration of test compounds combined with ceftazidime (8 μg/mL) for bacteriostasis [1] | The minimum concentration of test compounds combined with ceftazidime (8 μg/mL) for bacteriostasis [3] | The minimum concentration of test compounds combined with ceftazidime (8 μg/mL) for bacteriostasis [4] | The minimum concentration of test compounds combined with ceftazidime (8 μg/mL) for bacteriostasis [5] | The minimum concentration of test compounds combined with ceftazidime (8 μg/mL) for bacteriostasis [7] | The minimum concentration of test compounds combined with imipenem (4 μg/mL) for bacteriostasis [9] | The minimum concentration of test compounds combined with imipenem (4 μg/mL) for bacteriostasis [10] | The minimum concentration of test compounds combined with imipenem (4 μg/mL) for bacteriostasis [11] | The minimum concentration of test compounds combined with imipenem (4 μg/mL) for bacteriostasis [12] | The minimum concentration of test compounds combined with imipenem (4 μg/mL) for bacteriostasis [13] | The minimum concentration of test compounds combined with imipenem (4 μg/mL) for bacteriostasis [14] | The minimum concentration of test compounds combined with imipenem (4 μg/mL) for bacteriostasis [15]
C (C: 16-128 μg/mL): The minimum concentration of test compounds combined with ceftazidime (8 μg/mL) for bacteriostasis [8] | The minimum concentration of test compounds combined with imipenem (4 μg/mL) for bacteriostasis [16]

O=C(NC1CCNC1)[C@@H]1CC2(CC2)[C@@H]2CN1C(=O)N2OS(=O)(=O)O (stereo partly drawn) [Example 28, (1R,4S)-6-oxo-4-(pyrrolidin-3-ylaminoformyl)-5,7-diazaspiro[bicyclo[3.2.1]octane-2,1′-cyclopropan]-7-yl sulfate]
B (B: 8-16 μg/mL): The minimum concentration of test compounds combined with ceftazidime (8 μg/mL) for bacteriostasis [2]
A (A: <8 μg/mL): The minimum concentration of test compounds combined with ceftazidime (8 μg/mL) for bacteriostasis [1] | The minimum concentration of test compounds combined with ceftazidime (8 μg/mL) for bacteriostasis [3] | The minimum concentration of test compounds combined with ceftazidime (8 μg/mL) for bacteriostasis [4] | The minimum concentration of test compounds combined with ceftazidime (8 μg/mL) for bacteriostasis [5] | The minimum concentration of test compounds combined with ceftazidime (8 μg/mL) for bacteriostasis [6] | The minimum concentration of test compounds combined with ceftazidime (8 μg/mL) for bacteriostasis [7] | The minimum concentration of test compounds combined with imipenem (4 μg/mL) for bacteriostasis [9] | The minimum concentration of test compounds combined with imipenem (4 μg/mL) for bacteriostasis [10] | The minimum concentration of test compounds combined with imipenem (4 μg/mL) for bacteriostasis [11] | The minimum concentration of test compounds combined with imipenem (4 μg/mL) for bacteriostasis [12] | The minimum concentration of test compounds combined with imipenem (4 μg/mL) for bacteriostasis [13] | The minimum concentration of test compounds combined with imipenem (4 μg/mL) for bacteriostasis [14] | The minimum concentration of test compounds combined with imipenem (4 μg/mL) for bacteriostasis [15]
C (C: 16-128 μg/mL): The minimum concentration of test compounds combined with ceftazidime (8 μg/mL) for bacteriostasis [8] | The minimum concentration of test compounds combined with imipenem (4 μg/mL) for bacteriostasis [16]
